Data published in the Deep4Chem optical property database.
Each block holds one molecule with its values, some of them ahead of it.

Test: photoluminescence quantum yield (fraction); solvent given as SMILES
[1] = in O=P(c1ccccc1)(c1ccccc1)c1ccc2oc3ccc(P(=O)(c4ccccc4)c4ccccc4)cc3c2c1

SMILES: c1ccc(-c2nc(-c3ccccc3)nc(-c3ccc(-n4c5ccccc5c5cc6c7ccccc7n7c8ccccc8c(c54)c67)cc3)n2)cc1
photoluminescence quantum yield [1]: 0.68

SMILES: Cn1nc(-c2ccccc2)c2n[nH]nc2c1=O
photoluminescence quantum yield (in CC#N): 0.34
photoluminescence quantum yield (in CCO): 0.21
photoluminescence quantum yield (in Cc1ccccc1): 0.23

SMILES: CCOC(=O)/N=c1/oc2c(OC)cccc2cc1C#N
photoluminescence quantum yield (in ClCCl): 0.0034

SMILES: CCCCN(CCCC)c1ccc(C#Cc2cc(C#Cc3c(F)c(F)c(F)c(F)c3F)c(C#Cc3ccc(N(CCCC)CCCC)cc3)cc2C#Cc2c(F)c(F)c(F)c(F)c2F)cc1
photoluminescence quantum yield (in ClCCl): 0.14

SMILES: Clc1nc(Cl)nc(Nc2cc3ccc4cccc5ccc(c2)c3c45)n1
photoluminescence quantum yield (in CC#N): 0
photoluminescence quantum yield (in CCCCOCCCC): 0.06
photoluminescence quantum yield (in CO): 0

SMILES: F[B-]1(F)n2c(nc(Br)c2Br)-c2cccc[n+]21
photoluminescence quantum yield (in C1CCCCC1): 0.47
photoluminescence quantum yield (in C1CCOC1): 0.32
photoluminescence quantum yield (in C1COCCO1): 0.35
photoluminescence quantum yield (in CC#N): 0.32
photoluminescence quantum yield (in CCCCCC): 0.45
photoluminescence quantum yield (in CO): 0.31
photoluminescence quantum yield (in ClC(Cl)Cl): 0.41

SMILES: CC[N+]1(CC)CN2C(=N1)C(C(=O)O)=Cc1cc(Cl)ccc12
photoluminescence quantum yield (in O): 0.352

SMILES: F[B-]1(F)Oc2ccccc2-c2cnc3ccccc3[n+]21
photoluminescence quantum yield (in Cc1ccccc1): 0.086

SMILES: N#Cc1nc(N(Cc2ccc(F)cc2)Cc2ccc(F)cc2)c(C#N)nc1N(Cc1ccc(F)cc1)Cc1ccc(F)cc1
photoluminescence quantum yield (in ClC(Cl)Cl): 0.76

SMILES: N#Cc1ccc(N)cc1
photoluminescence quantum yield (in C1CCCCC1): 0.13
photoluminescence quantum yield (in CC#N): 0.12
photoluminescence quantum yield (in CCCCCC): 0.09
photoluminescence quantum yield (in CCO): 0.041
photoluminescence quantum yield (in O): 0.0046
photoluminescence quantum yield (in OCC(F)(F)F): 0.0052

SMILES: Nc1ccc(N2C(=O)c3ccc4c5ccc6c7c(ccc(c8ccc(c3c48)C2=O)c75)C(=O)N(c2ccc(N)cc2)C6=O)cc1
photoluminescence quantum yield (in CN(C)C=O): 0.2

SMILES: CC(C)[Si](C#Cc1ccc(-c2c3cccc4c5cccc6c(-c7ccc(C#C[Si](C(C)C)(C(C)C)C(C)C)cc7)c7cccc8c9cccc2c9c(c34)c(c65)c78)cc1)(C(C)C)C(C)C
photoluminescence quantum yield (in Cc1ccccc1): 0.38

SMILES: c1ccc(-c2cc(-c3nnc(-c4ccc(N5c6ccccc6Oc6ccccc65)cc4)o3)c(-c3ccccc3)c(-c3ccccc3)c2-c2ccccc2)cc1
photoluminescence quantum yield (in Cc1ccccc1): 0.264
photoluminescence quantum yield (in c1ccc(-n2c(-c3c(-n4c5ccccc5c5ccccc54)cccc3-n3c4ccccc4c4ccccc43)nc3ccccc32)cc1): 0.93

SMILES: Cc1ccc2c(c1)C1(c3ccccc3-c3ccccc31)c1cc(C)ccc1N2c1ccc(-c2nc(-c3ccccc3)cc(-c3ccccc3)n2)cc1
photoluminescence quantum yield [1]: 0.87

SMILES: CC1(C)c2ccccc2N(c2ccc(-c3nc([C@]45CC6CC(C[C@@H](C6)C4)C5)nc([C@]45C[C@H]6C[C@@H](C[C@H](C6)C4)C5)n3)cc2)c2ccccc21
photoluminescence quantum yield (in CC(C)(C)c1ccc(-n2c3ccc([Si](c4ccccc4)(c4ccccc4)c4ccccc4)cc3c3cc([Si](c4ccccc4)(c4ccccc4)c4ccccc4)ccc32)cc1): 0.83

SMILES: CC/[NH+]=c1\cc2oc3cc(NCCC(=O)NCCCCC(NC(C)=O)C(=O)OC)c4ccccc4c3nc-2cc1C (stereo not drawn)
photoluminescence quantum yield (in CCO): 0.32
photoluminescence quantum yield (in O): 0.46

SMILES: CCCCCCOc1ccc2ccc3oc(=O)cc4cc(OCCCCCC)c1c2c43
photoluminescence quantum yield (in CC1CCCO1): 0.83

SMILES: CC(=O)c1ccc2ccc3c(NCCC(=O)NCCCCCCc4nc5c(=O)[nH]c(N)nc5n4[C@H]4C[C@H](O)[C@@H](CO)O4)ccc4ccc1c2c43
photoluminescence quantum yield (in C1CCOC1): 0.62
photoluminescence quantum yield (in CC#N): 0.72
photoluminescence quantum yield (in CC(C)O): 0.58
photoluminescence quantum yield (in CCO): 0.49
photoluminescence quantum yield (in CN(C)C=O): 0.63
photoluminescence quantum yield (in CO): 0.44
photoluminescence quantum yield (in CS(C)=O): 0.61
photoluminescence quantum yield (in O): 0.27
photoluminescence quantum yield (in OCC(O)CO): 0.38

SMILES: C(=C1c2ccccc2CCc2ccccc21)c1ccc(-c2cc(-c3ccc(C=C4c5ccccc5CCc5ccccc54)cc3)cc(-c3ccc(C=C4c5ccccc5CCc5ccccc54)cc3)c2)cc1
photoluminescence quantum yield (in C1CCOC1): 0.0045

SMILES: Cc1cc(C)c(C2=C3C=C(/C=C/C(=O)OC(C)(C)C)C=[N+]3[B-](F)(F)n3c2ccc3N2CCCC2)c(C)c1
photoluminescence quantum yield (in ClCCl): 0.57

SMILES: COc1ccc(-n2c3ccccc3c3cc(C=C(C#N)C#N)ccc32)cc1
photoluminescence quantum yield (in C1CCOC1): 0.03
photoluminescence quantum yield (in CC#N): 0.01
photoluminescence quantum yield (in CC(C)=O): 0.018
photoluminescence quantum yield (in CCOC(C)=O): 0.05
photoluminescence quantum yield (in CO): 0.015
photoluminescence quantum yield (in CS(C)=O): 0.01
photoluminescence quantum yield (in Cc1ccccc1): 0.15
photoluminescence quantum yield (in ClC(Cl)Cl): 0.035

SMILES: CC1=C(C#Cc2ccc(N(c3ccccc3)c3ccccc3)cc2)C(C)=[N+]2C1=C(c1ccccc1)c1c(C)c(C#Cc3ccc(N(c4ccccc4)c4ccccc4)cc3)c(C)n1[B-]2(F)F
photoluminescence quantum yield (in C1CCOC1): 0.31

SMILES: C(#Cc1cccc(C#Cc2ccc(-n3c4ccccc4c4ccccc43)cc2)c1)c1ccc(-n2c3ccccc3c3ccccc32)cc1
photoluminescence quantum yield (in ClCCl): 0.8

SMILES: COC(=O)[C@@]12N=N[C@@](C(=O)OC)(C3[C@H]1C3(C)C)[C@H]1[C@@H]2C1(C)C (stereo partly drawn)
photoluminescence quantum yield (in CC#N): 0.041

SMILES: CC1(C)c2ccccc2N(c2ccc(C(=O)/C=C(\O)c3ccc(N4c5ccccc5C(C)(C)c5ccccc54)cc3)cc2)c2ccccc21
photoluminescence quantum yield (in c1ccc2c(c1)c1ccccc1n2-c1ccc(-c2ccc(-n3c4ccccc4c4ccccc43)cc2)cc1): 0.86

SMILES: CCN(C)c1ccc(C2=C3C(C)=CC(C)=[N+]3[B-](F)(F)n3c(C)cc(C)c32)cc1
photoluminescence quantum yield (in CO): 0.44

The remaining lines, values ahead:

photoluminescence quantum yield (in CCO): 0.0357
photoluminescence quantum yield (in ClCCl): 0.016
SMILES: N#CC(C#N)=Cc1ccc(-c2ccc(O)c(-c3nc4ccccc4s3)c2)o1

photoluminescence quantum yield (in ClC(Cl)Cl): 0
SMILES: CCCCCCN1C(=O)c2cccc3c(-c4ccc([N+](=O)[O-])s4)ccc(c23)C1=O

photoluminescence quantum yield (in CCOC(C)=O): 0.95
SMILES: c1cc2ccc3cc4[nH]ccc4c4ccc(c1)c2c34

photoluminescence quantum yield (in ClCCl): 0.82
SMILES: CC(C)(C)c1cc2ccc3c(N(c4ccccc4)c4ccccc4)cc(N(c4ccccc4)c4ccccc4)c4ccc(c1)c2c34

photoluminescence quantum yield (in CCCCCC): 0.26
photoluminescence quantum yield (in CCO): 0.38
photoluminescence quantum yield (in CCOC(C)=O): 0.29
photoluminescence quantum yield (in ClCCl): 0.44
SMILES: c1cc2ccc3ccc(-n4c5ccccc5c5ccccc54)c4ccc(c1)c2c34

photoluminescence quantum yield (in C1CCOC1): 0.16
SMILES: Cc1cc(C)c([B-]2(c3c(C)cc(C)cc3C)[O+]=P(c3ccccc3)(c3ccccc3)c3cc(-c4ccc(C(C)(C)C)cc4)sc3-c3sc(-c4ccc(C(C)(C)C)cc4)cc32)c(C)c1

photoluminescence quantum yield (in C1CCCCC1): 0.47
photoluminescence quantum yield (in CCOC(C)=O): 0.13
SMILES: CC1=[N+]2C(=C(c3ccc(C(=O)c4ccccc4)cc3)c3ccc(C)n3[B-]2(F)F)C=C1c1cc2n(c1)[B-](F)(F)[N+]1=CC=CC1=C2c1c(C)cc(C)cc1C

photoluminescence quantum yield (in ClCCl): 0.18
SMILES: N#Cc1ccc(-c2cn3ccc[n+]3[n-]2)cc1

photoluminescence quantum yield (in ClC(Cl)Cl): 0.76
SMILES: CCCN1c2ccccc2Sc2cc(/C=C\c3cc(=O)oc4ccc(C)cc34)ccc21

photoluminescence quantum yield (in ClC(Cl)Cl): 0.76
SMILES: N#Cc1nc(N(Cc2ccccc2)Cc2ccccc2)c(C#N)nc1N(Cc1ccccc1)Cc1ccccc1

photoluminescence quantum yield (in CC#N): 0.09
photoluminescence quantum yield (in CO): 0.034
photoluminescence quantum yield (in ClC(Cl)Cl): 0.055
photoluminescence quantum yield (in c1ccccc1): 0.08
SMILES: CC(C)(C)C1Nc2ccccc2C(=O)N1Cc1ccccc1 (stereo not drawn)

photoluminescence quantum yield (in C1CCOC1): 0.68
SMILES: CN(C)c1ccc(-c2ccc(-c3cc(N4CCCCC4)c(C#N)c4c3-c3ccccc3CC4)cc2)cc1

photoluminescence quantum yield (in c1ccccc1): 0.668
SMILES: COc1ccc2ccc3oc(=O)c(-c4ccccc4)nc3c2c1

photoluminescence quantum yield (in C1COCCO1): 0.153
SMILES: CC(C)CN1C(=O)/C(=C/c2ccc(C#N)cc2)C=C1c1ccccc1

photoluminescence quantum yield (in CC#N): 0.29
photoluminescence quantum yield (in ClCCl): 0.33
SMILES: COC(=O)c1cccc2c1C#Cc1c(NC(C)=O)cccc1OCCCO2

photoluminescence quantum yield (in C1CCCCC1): 0.8
photoluminescence quantum yield (in CC#N): 0.66
photoluminescence quantum yield (in CO): 0.1
photoluminescence quantum yield (in ClC(Cl)Cl): 0.85
SMILES: CN(C)c1ccc2nc(-c3ccc(C=O)cc3)sc2c1

photoluminescence quantum yield (in CC#N): 0.046
photoluminescence quantum yield (in c1ccccc1): 0.073
SMILES: Cc1ccc(-c2cc(-c3ccccc3)c3c(N)nc(N4CCCC4)c(C#N)c3n2)cc1
